Results: publication PMC3265452 (PLoS Neglected Tropical Diseases, 2012)
Where a name gives a salt, the structure may show the parent alone. Read-outs that look alike come from different tables or passages of the source.

Target: AaDOP2 (Aedes aegypti, UniProt H6D5H2)
Experiment: AaDOP2 antagonist screen of the LOPAC1280 library (HEK-CRELuc-Aadop2 cells, luminescence)
Type: cell-based
Conditions: for inhibition at 10 µM: read-out: % of the SCH23390 effect (percent inhibition of receptor response relative to the SCH23390 control)
[1] = 10 µM compound, 300 nM dopamine, 2 hr, hit = compound effect <20

Sequence of AaDOP2 (H6D5H2 1-476): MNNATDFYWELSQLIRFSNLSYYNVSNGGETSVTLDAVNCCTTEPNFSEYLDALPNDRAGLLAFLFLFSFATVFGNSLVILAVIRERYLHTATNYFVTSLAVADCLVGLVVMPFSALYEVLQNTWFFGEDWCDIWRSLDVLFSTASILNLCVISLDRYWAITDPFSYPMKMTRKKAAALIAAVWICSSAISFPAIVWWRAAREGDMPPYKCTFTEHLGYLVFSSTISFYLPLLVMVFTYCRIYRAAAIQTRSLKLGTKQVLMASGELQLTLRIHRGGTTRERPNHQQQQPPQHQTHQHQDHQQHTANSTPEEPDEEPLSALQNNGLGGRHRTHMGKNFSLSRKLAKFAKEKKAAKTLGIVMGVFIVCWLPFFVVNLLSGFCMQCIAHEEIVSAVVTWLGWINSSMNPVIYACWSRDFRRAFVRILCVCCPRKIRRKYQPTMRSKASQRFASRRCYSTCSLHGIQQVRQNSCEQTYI

Compound	Compound effect (percent receptor signaling in presence of test compound, relative lux units relative to the SCH23390 control)	inhibition at 10 µM	Compound effect (percent receptor signaling in presence of test compound, relative lux units relative to the SCH23390 control) [1]
OCCN1CCN(CCCN2c3ccccc3Sc3ccc(Cl)cc32)CC1 [Compound 957, Perphenazine]	5	95%	–
C1CCc2nnnn2CC1 [Compound 958, Pentylenetetrazole]	94	–	–
CC[C@@H]1C(=O)OC[C@@H]1Cc1cncn1C.Cl [Compound 959, (+)-Pilocarpine hydrochloride]	–	–	104%
CC[C@@H]1C(=O)OC[C@@H]1Cc1cncn1C [Compound 960, Pilocarpine nitrate]	96	–	–
CN(C)CCCN1c2ccccc2Sc2ccccc21 [Compound 961, Promazine hydrochloride]	12	88%	–
NNCCc1ccccc1 [Compound 962, Phenelzine sulfate]	93	–	–
CN(C)CCC(c1ccccc1)c1ccccn1 (stereo not shown) [Compound 963, Pheniramine maleate]	91	–	–
O=C(O)CP(=O)(O)O [Compound 964, Phosphonoacetic acid]	84	–	–
CCC1(c2ccccc2)C(=O)NCNC1=O [Compound 967, Primidone]	94	–	–
CN1CCN(CC(=O)N2c3ccccc3C(=O)Nc3cccnc32)CC1 [Compound 969, Pirenzepine dihydrochloride]	114	–	–
NCCCCN [Compound 970, Putrescine dihydrochloride]	88	–	–
Cc1ccc(N(CC2=NCCN2)c2cccc(O)c2)cc1 [Compound 971, Phentolamine mesylate]	42	–	–
CCC(=O)c1ccc2c(c1)N(CCCN(C)C)c1ccccc1S2 [Compound 972, Propionylpromazine hydrochloride]	15	85%	–
COc1cc2nc(N3CCN(C(=O)c4ccco4)CC3)nc(N)c2cc1OC [Compound 973, Prazosin hydrochloride]	81	–	–
O=C(CCc1ccc(O)cc1)c1c(O)cc(O)cc1O [Compound 974, Phloretin]	99	–	–
C#CCN(C)Cc1ccccc1 [Compound 975, Pargyline hydrochloride]	95	–	–
CCCCCCCCCCCCCC(=O)O[C@@H]1[C@@H](C)[C@@]2(O)[C@@H](C=C(CO)C[C@]3(O)C(=O)C(C)=C[C@@H]23)[C@@H]2C(C)(C)[C@]12OC(C)=O [Compound 976, Phorbol 12-myristate 13-acetate]	12	88%	–
Br.Br.N=C(N)SCCc1cccc(CCSC(=N)N)c1 [Compound 977, 1,3-PBIT dihydrobromide]	–	–	117%
C=CC1=C(C)c2cc3[nH]c(cc4nc(cc5[nH]c(cc1n2)c(C)c5CCC(=O)O)C(CCC(=O)O)=C4C)c(C)c3C=C [Compound 978, Protoporphyrin IX disodium]	86	–	–
Br.Br.N=C(N)SCCc1ccc(CCSC(=N)N)cc1 [Compound 979, 1,4-PBIT dihydrobromide]	–	–	120%
CCCCC1C(=O)N(c2ccccc2)N(c2ccccc2)C1=O [Compound 980, Phenylbutazone]	96	–	–
COc1ccc(C(=O)NCc2cccnc2)cc1C(=O)NCc1cccnc1 [Compound 981, Picotamide]	84	–	–
N[C@@H]1C[C@H]1c1ccccc1 [Compound 982, Tranylcypromine hydrochloride]	73	–	–
CC(C)NC[C@H](O)COc1cccc2ccccc12 [Compound 983, (S)-Propranolol hydrochloride]	90	–	–
N.S=C(S)N1CCCC1 [Compound 984, Ammonium pyrrolidinedithiocarbamate]	–	–	85%
CNCCCC1c2ccccc2C=Cc2ccccc21 [Compound 986, Protriptyline hydrochloride]	18	82%	–

Compound	Compound effect (percent receptor signaling in presence of test compound, relative lux units relative to the SCH23390 control)	inhibition at 10 µM	Compound effect (percent receptor signaling in presence of test compound, relative lux units relative to the SCH23390 control) [1]
CCCN1C[C@H](CSC)C[C@@H]2c3cccc4[nH]cc(c34)C[C@H]21 [Compound 987, Pergolide methanesulfonate]	53	–	–
O=c1[nH]c2ccccc2c2ccccc12 [Compound 988, 6(5H)-Phenanthridinone]	90	–	–
CC(=O)[C@H]1CC[C@H]2[C@@H]3CC[C@H]4C[C@H](O)CC[C@]4(C)[C@H]3CC[C@]12C [Compound 989, 5alpha-Pregnan-3alpha-ol-20-one]	73	–	–
CC(C)[N+](C)(CCOC(=O)C1c2ccccc2Oc2ccccc21)C(C)C [Compound 990, Propantheline bromide]	71	–	–
O=S(=O)(O)C1CCNCC1 [Compound 991, Piperidine-4-sulphonic acid]	105	–	–
O=C(O)/C=C\C(=O)O.c1cnc(N2CCN(Cc3ccc4c(c3)OCO4)CC2)nc1 [Compound 993, Piribedil maleate]	–	–	120%
NC[C@@H]1O[C@H](O[C@H]2[C@@H](O)[C@H](O[C@@H]3[C@@H](O)[C@H](N)C[C@H](N)[C@H]3O[C@H]3O[C@H](CO)[C@@H](O)[C@H](O)[C@H]3N)O[C@@H]2CO)[C@H](N)[C@@H](O)[C@@H]1O [Compound 994, Paromomycin sulfate]	96	–	–
O.c1cnc2c(c1)ccc1cccnc12 [Compound 995, 1,10-Phenanthroline monohydrate]	95	–	–
CCN(CC)CCNC(=O)c1ccc(N)cc1 [Compound 996, Procainamide hydrochloride]	100	–	–
CCCNC(C)C(=O)Nc1ccccc1C (stereo not shown) [Compound 997, Prilocaine hydrochloride]	95	–	–
CCCn1cnc2c1c(=O)n(CCCCC(C)=O)c(=O)n2C [Compound 998, Propentofylline]	87	–	–
CCCNC[C@H](O)COc1ccccc1C(=O)CCc1ccccc1.Cl [Compound 999, (S)-(-)-propafenone hydrochloride]	77	–	–
CN(C)C(=O)Oc1ccc[n+](C)c1 [Compound 1000, Pyridostigmine bromide]	106	–	–
CCN(CC)CCOC(=O)c1ccc(N)cc1 [Compound 1001, Procaine hydrochloride]	96	–	–
Nc1nc(Nc2ccccc2)nc2c1ncn2[C@@H]1O[C@H](CO)[C@@H](O)[C@H]1O [Compound 1002, 2-Phenylaminoadenosine]	106	–	–
CCCN1CCC[C@H](c2cccc(O)c2)C1.Cl [Compound 1003, R(+)-3PPP hydrochloride]	–	–	86%
CCCN1CCC[C@@H](c2cccc(O)c2)C1.Cl [Compound 1004, S(-)-3PPP hydrochloride]	–	–	89%
Cl.NCC#Cc1ccccc1 [Compound 1006, 3-Phenylpropargylamine hydrochloride]	–	–	91%
OC[C@H]1O[C@@H](n2cnc3c(NCCc4ccccc4)ncnc32)[C@H](O)[C@@H]1O [Compound 1007, N6-2-Phenylethyladenosine]	104	–	–
OC[C@H]1O[C@@H](n2cnc3c(Nc4ccccc4)ncnc32)[C@H](O)[C@@H]1O [Compound 1008, N6-Phenyladenosine]	99	–	–
NCC(CP(=O)(O)O)c1ccc(Cl)cc1 (stereo not shown) [Compound 1009, Phaclofen]	71	–	–
N=C(N)NC(=N)Nc1ccccc1 [Compound 1011, 1-Phenylbiguanide]	81	–	–
CN/C(=N\c1ccc(C2=NNC(=O)CC2C)cc1)NC#N (stereo not shown) [Compound 1012, SKF 94836]	72	–	–
Cc1nc2ccccn2c(=O)c1CCN1CCC(C(=O)c2ccc(F)cc2)CC1 [Compound 1013, Pirenperone]	10	90%	–
COc1cc(OC)c(C=C2C(O)=Nc3ccccc32)c(OC)c1 [Compound 1014, IC 261]	78	–	–
CC(C)NC[C@H](O)COc1cccc2[nH]ccc12 [Compound 1015, S(-)-Pindolol]	87	–	–
